Publication PMC8237569 (Proceedings of the National Academy of Sciences of the …, 2021)
In brackets after ≈: the same amount, converted by molar mass.

Columns and labels:
[1] = test system: TA-C–resistant M. tuberculosis strains (fbiC, fgd1 mutants); assay type: cell-based
[2] = test system: NC1=NC2(CCCCC2)N(c2ccc(OCc3cn(CCCCOc4ccc5ccc(=O)oc5c4)nn3)cc2)C(N)=N1; assay: purified protein, by the assay type; conditions: pH 7.5

## NNC(=O)c1ccncc1 [INH, isoniazid]
[1]
  MIC50: 0.4 µM (≈ 0.0549 µg/mL)

## Nc1ccc(C(=O)O)c(O)c1 [PAS, para-aminosalicylic acid]
[1]
  MIC50: 0.2 µM (≈ 0.0306 µg/mL)

## O=[N+]([O-])c1cn2c(n1)OC[C@@H](OCc1ccc(OC(F)(F)F)cc1)C2 [PTM, pretomanid]
[1]
  MIC50: >100 µM

## CO[C@H]1/C=C/O[C@@]2(C)Oc3c(C)c(O)c4c(O)c(c(/C=N/N5CCN(C)CC5)c(O)c4c3C2=O)NC(=O)/C(C)=C\C=C\[C@H](C)[C@H](O)[C@@H](C)[C@@H](O)[C@@H](C)[C@H](OC(C)=O)[C@@H]1C [RIF, rifampicin]
[1]
  MIC50, RIF: 0.0016 µM (≈ 0.00132 µg/mL)

## Rv1558 (Mycobacterium tuberculosis H37Rv)
[2]
  Km: 10.01 ± 1.6 µM
